Earlier results, collected in patent US20210322447A1, “T[…]-DOSING DELIVERY OF PSYCHEDELICS DERIVATIVES” (PIKE THERAPEUTICS, INC., priority 2020, published 2021).

What was measured:
central nervous system = conditions: cited from Nelson and Foltz, Anal. Chem. 64, 1578-1585, 1992
[1] = tested on: serotonin receptors in the brain; conditions: once ingested; typical duration

| SMILES | concentration sufficient to induce hallucination (central nervous system) | duration of mind-altering effects [1] |
| --- | --- | --- |
| CCN(CC)C(=O)[C@@H]1C=C2c3cccc4[nH]cc(c34)C[C@H]2N(C)C1 [LSD, 9,10-didehydro-N,N-diethyl-6-methylergoline-80-carboxamide] | 20 to 80 µg | – |
| CN(C)CCc1c[nH]c2cccc(OP(=O)(O)O)c12 [psilocybin, [3-(2-dimethylaminoethyl)-1H-indol-4-yl] dihydrogen phosphate] | – | two to six |
